Reference: US20110105565A1, “WATER SOLUBLE SMALL MOLECULE INHIBITORS OF THE CYSTIC FIBROSIS TRANSMEMBRANE CONDUCTANCE REGULATOR” (THE REGENTS OF THE UNIVERSITY OF CALIFORNIA, priority 2008, published 2011)
“Also recorded” adds a separate entry of the source.

Assays:
embryonic kidneys = assay: Embryonic kidney organ culture model (8-Br-cAMP-induced cysts); type: cell-based, mouse; settings: for kidney length after 4 days in culture: absence of 8-Br-cAMP; for cyst formation in embryonic kidneys (in words): 100 μM 8-Br-cAMP, 4 days
Excerpt: An embryonic kidney organ culture model was used to further evaluate compounds T08 and G07. Embryonic kidney culture models permit organotypic growth and differentiation of renal tissue in defined media without the confounding effects of circulating hormones and glomerular filtration (see, e.g., Magenheimer et al., J Am Soc Nephrol 17: 3424-37, 2006; and Gupta et al., Kidney Int 63: 365-376, 2003). In addition, the early mouse kidney tubule in this model has an intrinsic capacity to secrete fluid in response to cAMP by a CFTR-dependent mechanism (Magenheimer et al.), allowing the evaluation of CFTR inhibitors in particular.
Mouse embryos were obtained at embryonic day 13.5 (E13.5). Metanephroi were dissected and placed on transparent Falcon […] porous cell culture inserts. To the culture inserts was added DMEM/Ham's F-12 nutrient medium supplemented with 2 mM L-glutamine, 10 mM HEPES, 5 μg/ml insulin, 5 μg/ml transferrin, 2.8 nM selenium, 25 ng/ml prostaglandin E, 32 pg/ml T3, 250 U/ml penicillin and 250 μg/ml streptomycin. Kidneys were maintained in a 37° C. humidified CO2 incubator, and were cultured for 4 days in the absence or presence of 100 μM 8-Br-cAMP. Culture medium containing 100 μM 8-Br-cAMP, with or without CFTR inhibitors, was replaced (in the lower chamber) every 12 hours.
Kidneys were photographed using a Nikon inverted microscope (Nikon TE 2000-S) equipped with 2× objective lens, 520 nm bandpass filter, and high-resolution PixeLINK color CCD camera. […] Cyst sizes in micrographs of metanephroi were determined using MATLAB 7.0 software. A masking procedure was used to highlight all pixels of similar intensity within each cyst. Fractional cyst area was calculated as total cyst area divided by total kidney area. Cysts with diameters >50 μm were included in the analysis. Image acquisition and analysis was done without knowledge of treatment condition.

[1] = HPLC/MS measurement of inhibitor concentration in urine after subcutaneous administration; type: in vivo, mouse; settings: 4 times daily for 3 days, 5 mg/kg/day; for concentration at 1 h: 1 hour after final dosing; for concentration at 5 h: 5 hour after final dosing
Protocol: CFTR inhibitors (5-10 mg/kg/day) or saline DMSO vehicle control (0.05 mL/injection) were administrated by subcutaneous injection on the backs of neonatal mice four times a day for 3 or 7 days using a 1 cc insulin syringe, beginning at age 2 days (11 mice per group). Pkd1^flox/+; Ksp-Cre or Pkd1^flox/+ mice from the same litter were used as controls. During the treatment period, control and Pkd1^flox/−; Ksp-Cre mice, with or without CFTR inhibitor treatment, were indistinguishable in their activity and behavior. Body weight was measured at day 5 (3 days after treatment), at which time there was no difference in body weight in any of the mouse groups. Blood and urine samples were collected for measurements of CFTR inhibitor concentration and renal function. Kidneys were removed and weighed, and fixed for histological examination or homogenized for determination of CFTR inhibitor content.
For high-performance liquid chromatography/mass spectrometry (HPLC/MS) analysis of CFTR inhibitor concentration, kidneys were homogenized in 50-100 μl of PBS for 5 min using an EPPENDORF pellet pestle homogenizer. The homogenate was mixed with an equal volume of chilled acetonitrile to precipitate proteins. After centrifugation at 5000×g for 10 min the supernatant was evaporated under nitrogen, and the residue was dissolved in eluent (50% CH3CN/20 mM NH4OAc). Urine samples were directly diluted 10-fold with eluent. Reversed-phase HPLC separations were carried out using a WATERS C18 column (2.1×100 mm, 2.5 μm particle size) equipped with a solvent delivery system (WATERS model 2690, Milford, Mass.). The solvent system consisted of a linear gradient from 20% CH3CN/20 mM NH4OAc to 95% CH3CN/20 mM NH4OAc, run over 20 min, followed by 5 min at 95% CH3CN/20 mM NH4OAc (0.2 mL/min flow rate). Mass spectra were acquired on an Alliance HT 2790+ZQ mass spectrometer using negative ion detection, scanning from 150 to 1500 Da. The electrospray ion source parameters were: capillary voltage 3.2 kV (negative ion mode) or 3.5 kV (positive ion mode), cone voltage 37 V, source temperature 120° C., desolvation temperature 250° C., cone gas flow 25 L/h, and dessolvation gas flow 350 L/h.
Concentrations were measured to establish dosing to give sustained concentrations in kidney/urine of >1 μM, where CFTR is inhibited. Kidney and urine samples were obtained from mice after 4 times daily subcutaneous administration for 3 days at 5 mg/kg/day, a dose regimen determined from preliminary studies. Urinary concentrations were measured at 1 and 5 hour after the final dosing. For tetrazolo-CFTRinh-172, urine concentrations were 3.3 and 3.6 μM at 1 and 5 hour, respectively. The urine concentrations of Ph-GlyH-101 were 4.3 and 5.8 μM. […] These concentrations are several-fold greater than the IC50 for CFTR inhibition.

CFTR = target: T1, CFTR (Canis lupus familiaris, UniProt Q5U820); assay: Short-circuit current measurements in MDCK cells; type: cell-based, Canine; settings: for IC50: after CFTR stimulation by forskolin, read-out: IC50, inhibition of short-circuit current in MDCK cells; for CFTR expression, short-circuit current after incubation (in words): 10 μM, 1 or 48 hour incubation, washout 1 hour
T1 construct: MDCK cells, which endogenously express CFTR; endogenous in cells; host or cells: MDCK cells
T1 sequence (Q5U820 whole entry): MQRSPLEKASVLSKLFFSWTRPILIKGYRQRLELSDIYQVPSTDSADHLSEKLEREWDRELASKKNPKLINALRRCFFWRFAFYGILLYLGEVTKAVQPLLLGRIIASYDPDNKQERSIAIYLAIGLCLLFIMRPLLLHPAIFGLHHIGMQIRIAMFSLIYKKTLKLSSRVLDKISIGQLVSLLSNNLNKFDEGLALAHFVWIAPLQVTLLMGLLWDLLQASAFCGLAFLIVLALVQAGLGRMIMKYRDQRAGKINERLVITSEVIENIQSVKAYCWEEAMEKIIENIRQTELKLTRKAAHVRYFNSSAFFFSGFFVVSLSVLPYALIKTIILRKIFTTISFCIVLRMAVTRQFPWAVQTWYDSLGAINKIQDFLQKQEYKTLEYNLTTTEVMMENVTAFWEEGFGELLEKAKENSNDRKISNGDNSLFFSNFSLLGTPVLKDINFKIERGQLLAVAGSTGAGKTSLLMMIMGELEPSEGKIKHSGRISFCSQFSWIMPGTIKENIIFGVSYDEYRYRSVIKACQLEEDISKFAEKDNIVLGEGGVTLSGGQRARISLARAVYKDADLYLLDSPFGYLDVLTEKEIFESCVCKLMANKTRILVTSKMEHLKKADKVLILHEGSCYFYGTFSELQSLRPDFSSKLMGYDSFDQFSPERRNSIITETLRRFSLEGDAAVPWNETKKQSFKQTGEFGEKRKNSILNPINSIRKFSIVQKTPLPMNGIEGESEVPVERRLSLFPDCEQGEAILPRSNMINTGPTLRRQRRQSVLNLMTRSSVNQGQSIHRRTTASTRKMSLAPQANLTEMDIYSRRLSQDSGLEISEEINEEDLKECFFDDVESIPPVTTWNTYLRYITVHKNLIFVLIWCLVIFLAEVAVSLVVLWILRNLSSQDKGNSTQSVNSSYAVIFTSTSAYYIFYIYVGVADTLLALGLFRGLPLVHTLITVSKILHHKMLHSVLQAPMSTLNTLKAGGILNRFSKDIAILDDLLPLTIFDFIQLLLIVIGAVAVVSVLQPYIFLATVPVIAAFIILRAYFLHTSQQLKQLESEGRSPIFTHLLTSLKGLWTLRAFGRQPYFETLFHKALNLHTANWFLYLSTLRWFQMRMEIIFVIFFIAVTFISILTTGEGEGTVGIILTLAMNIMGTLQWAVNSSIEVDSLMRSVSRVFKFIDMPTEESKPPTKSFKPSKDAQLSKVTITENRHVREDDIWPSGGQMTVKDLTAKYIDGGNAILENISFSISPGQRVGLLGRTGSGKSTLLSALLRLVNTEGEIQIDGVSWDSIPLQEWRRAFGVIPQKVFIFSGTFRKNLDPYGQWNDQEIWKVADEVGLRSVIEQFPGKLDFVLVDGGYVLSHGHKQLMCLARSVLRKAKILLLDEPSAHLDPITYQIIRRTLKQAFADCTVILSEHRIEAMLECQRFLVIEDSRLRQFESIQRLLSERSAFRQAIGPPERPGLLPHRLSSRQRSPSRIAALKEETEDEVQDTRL
Protocol: CFTR inhibition potency was confirmed in MDCK cells by short-circuit current analysis. Snapwell inserts containing MDCK cells (transepithelial resistance 1000-2000 Ohms) were mounted in a standard Using chamber system. The basolateral membrane was permeabilized with 250 μg/ml amphotericin B. The hemichambers were filled with 5 mL of 65 mM NaCl, 65 mM Na-gluconate, 2.7 mM KCl, 1.5 mM KH2PO4, 1 mM CaCl2, 0.5 mM MgCl2, Na-Hepes and 10 mM glucose (apical), and 130 mM NaCl, 2.7 mM KCl, 1.5 mM KH2PO4, 1 mM CaCl2, 0.5 mM MgCl2, Na-Hepes and 10 mM glucose (basolateral) (pH 7.3). Short-circuit current was recorded continuously using a DVC-1000 voltage clamp (World Precision Instruments, Sarasota Fla.) with Ag/AgCl electrodes and 1 M KCl agar bridges.
In some experiments, MDCK cells in Snapwell inserts were cultured in medium containing 10 μM T08 or G07 for 1 or 48 hours. Compounds were washed out with medium for 1 hour before short-circuit current measurements.

| Compound | kidney length after 4 days in culture (embryonic kidneys) | concentration at 1 h ([1]; C57BL/6, mouse, urine, sc) | concentration at 5 h ([1]; C57BL/6, mouse, urine, sc) | IC50 (CFTR) | cyst formation in embryonic kidneys (in words) (embryonic kidneys; listed as T08) | CFTR expression, short-circuit current after incubation (in words) (CFTR) | cyst formation in embryonic kidneys (in words) (embryonic kidneys) | concentration at 1 h [1] | concentration at 5 h [1] |
| --- | --- | --- | --- | --- | --- | --- | --- | --- | --- |
| O=C1/C(=C/c2ccc(-c3nn[nH]n3)cc2)SC(=S)N1c1cccc(C(F)(F)F)c1 [Compound 6, (Z)-5-(4-(1H-tetrazol-5-yl)benzylidene)-2-thioxo-3-(3-(trifluoromethyl)phenyl)thiazolidin-4-one] | 7.4±0.5 mm | 3.3 µM | 3.6 µM | ~1 µM | – | – | – | – | – |
| O=C1/C(=C/c2ccc(-c3nnn[nH]3)cc2)SC(=S)N1c1cccc(C(F)(F)F)c1 [Compound 6, (Z)-5-(4-(1H-tetrazol-5-yl)benzylidene)-2-thioxo-3-(3-(trifluoromethyl)phenyl)thiazolidin-4-one] | – | – | – | – | remarkably reduced cyst formation; also recorded: reduced the number and size of cysts | did not alter CFTR expression | – | – | – |
| N-2-naphthalenyl-2-hydroxyethyl-[(3,5-dibromo-2,4-dihydroxyphenyl)methylene]phenylglycinehydrazide [Compound G07] | 7.1±0.4 mm | – | – | ~1 µM | – | did not alter CFTR expression | remarkably reduced cyst formation; also recorded: reduced the number and size of cysts | 4.3 µM | 5.8 µM |
